The results in this text go back to paper PMC12730265, “Combinatorial Antimicrobial Effects of Imidazolium-Based Ionic Liquids and Antifungals on Model Fungal Organisms” (Biomolecules, 2025).

Holding throughout (assay type): cell-based
Assay [1] concerns S. cerevisiae. The experiment in a line: MIC50 by microbroth dilution. As to conditions: Saccharomyces cerevisiae. As for the experimental part: (§1) A single colony was picked from each streak to prepare overnight in 5 mL fresh YPD broth and placed into a tilted rotating incubator set at 30 °C and 40 rpm overnight. After ~16–20 h, a fresh dilution in media (1:200) was made and used for the experiment. […] Finally, diluted culture was added to each well of a sterile 96-well plate containing serially diluted aliquots of each RTIL to a total volume of 100 µL. The plate was incubated at 30 °C overnight with shaking for 24 and 48 h. At both timepoints, the yeast was manually resuspended in the plate by pipetting and we measured the OD600 using a Spectramax M5 multimode plate reader (Molecular Devices, San Jose, CA, USA).
(§2) The four species of yeast tested included three common lab strains of non-pathogenic yeast strains, S. boulardii, S. cerevisiae, and S. pombe, and one common human pathogen, C. albicans.

The test system of assay [2] is C. albicans. As to the kind of experiment: MIC50 by microbroth dilution. As to conditions: Candida albicans, 48 h. As for the experimental part:
as §1, §2

In assay [3] the test system is S. pombe. As to the kind of experiment: MIC50 by microbroth dilution. The following applies: Schizosaccharomyces pombe. As for the experimental part: as §1, §2
For assay [4], the system named is S. boulardii. As to the kind of experiment: MIC50 by microbroth dilution. The following applies: Saccharomyces cerevisiae. As for the experimental part: as §1, §2
For assay [5], the system named is S. cerevisiae. The experiment in a line: Kirby–Bauer disk diffusion assay on IL-containing YPD plates. The following applies: 100 = no growth on plate. As for the experimental part: (§3) Assessment of fungal growth on YPD plates with AFs + ILs served as an indicator for the combined efficacy of treatment of ILs and AFs. YPD agar plates were made with addition of increasing concentrations of [HMIM]Cl at 0, 2.5, 6.25, and 25 mM or [OMIM]Cl at 0, 0.25, 0.625, and 2.5 mM. Plates solidified and dried on bench for 24 h before use. IN total, 400 μL of S. cerevisiae or C. albicans liquid culture at mid-log phase OD600 0.5 was spread using sterile glass beads to achieve even distribution. Following addition of culture, the plates were allowed to dry for 30 min before the addition of antifungal disks. Antifungal-infused disks were prepared using the stock solutions of solubilized antibiotics; 15 μL of each of the 4 azole antifungals at stock concentrations was pipetted onto a sterile 6 mm cellulose disk (BD). […] After plate drying was complete, sterile forceps were used to transfer the disks to the media, and the plate was grown upright in an incubator overnight at 30 °C. The following day, photographs were taken of the plates to visualize the zone of inhibition (ZOI) created by the combined treatment. Adobe Illustrator 2023 CC was used to perform digital measurements of ZOI diameters.
(§4) To assess the potential for combinatorial effects of ILs and AFs in yeast, Kirby–Bauer disk diffusion assays were performed for C. albicans and S. cerevisiae for [HMIM]Cl and [OMIM]Cl with all four AFs. […] The addition of 6 mm cellulose disks infused with equal volumes of solubilized AFs to the plates occurred after plating of C. albicans or S. cerevisiae, allowing for growth for 48 h at 23 °C, at which point the plates were evaluated for the establishment of zones of inhibition (ZOI). Digital pictures were acquired of all plates, and measurements of ZOI diameter were performed digitally as described in the Methods. […] With progressively increasing amounts of both [HMIM]Cl and [OMIM]Cl, ZOIs increased for all Afs, including Fluconazole and Itraconazole, which appear to be ineffective without IL in the Kirby–Bauer disk assay. Experiments were performed in triplicate and ZOIs were measured for all plates.
Similar experiments testing the combinatorial effects of [HMIM]Cl or [OMIM]Cl were performed on S. cerevisiae using Kirby–Bauer disk assays and quantified for changes in ZOI (Appendix Figure A1). ZOI measurements (mm) from both C. albicans and S. cerevisiae were compiled, and the averages are shown numerically as well as with shading and plotted in Figure 3. […] Finally, at intermediate concentrations of both [HMIM]Cl and [OMIM]Cl, a combinatorial effect of IL + AF was evident for all four AFs in S. cerevisiae, similar to observations in C. albicans.

The test system of assay [6] is C. albicans. Described as above. The following applies: for inhibition of C. albicans growth around disk: absence of added IL. Here is the method:
as §3, §4

Where [7] appears, read: 50% growth after 48 h in YPD media, OD600, read-out: MIC50.

Like-named read-outs stand apart in the source and are kept apart here.

On to `OC(Cn1cncn1)(Cn1cncn1)c1ccc(F)cc1F` [Fluconazole], for which the MIC50 is 4 µg/mL in assay [1] (setting [7]), 8 µg/mL in assay [2] (setting [7]), 4 µg/mL in assay [3] (setting [7]) and 4 µg/mL in assay [4] (setting [7]). Further, the “Zone of inhibition (ZOI) diameter” value stood at 34 mm in assay [5] ([HMIM]Cl 0 mM in plate); 36 mm in assay [5] ([HMIM]Cl 2.5 mM in plate); 43.33 mm in assay [5] ([HMIM]Cl 6.25 mM in plate); 100 mm in assay [5] ([HMIM]Cl 25 mM in plate); 34 mm in assay [5] ([OMIM]Cl 0 M in plate); 37.33 mm in assay [5] ([OMIM]Cl 0.25 mM in plate). Besides, the “Zone of inhibition (ZOI) diameter” value in assay [5] ([OMIM]Cl 0.625 mM in plate) came out at 69 mm; in assay [5] ([OMIM]Cl 2.5 mM in plate), 100 mm; in assay [6] ([HMIM]Cl 0 mM in plate), 0 mm; in assay [6] ([HMIM]Cl 2.5 mM in plate), 0 mm; in assay [6] ([HMIM]Cl 6.25 mM in plate) it was 31.33 mm; in assay [6] ([HMIM]Cl 25 mM in plate), 47.33 mm. In addition, the “Zone of inhibition (ZOI) diameter” value in assay [6] ([OMIM]Cl 0 M in plate) was determined as 0 mm; in assay [6] ([OMIM]Cl 0.25 mM in plate), 0 mm; in assay [6] ([OMIM]Cl 0.625 mM in plate), 29.33 mm; in assay [6] ([OMIM]Cl 2.5 mM in plate), 70.33 mm. Also, the “inhibition of C. albicans growth around disk” value in assay [6] is given as “no inhibition”.

On to `CCC(C)n1ncn(-c2ccc(N3CCN(c4ccc(OCC5COC(Cn6cncn6)(c6ccc(Cl)cc6Cl)O5)cc4)CC3)cc2)c1=O` (stereo not shown) [Itraconazole], for which the MIC50 was found to be 0.5 µg/mL in assay [1] (setting [7]), 1 µg/mL in assay [2] (setting [7]), 0.5 µg/mL in assay [3] (setting [7]) and 0.5 µg/mL in assay [4] (setting [7]). The “Zone of inhibition (ZOI) diameter” value in assay [5] ([HMIM]Cl 0 mM in plate) stood at 8 mm; in assay [5] ([HMIM]Cl 2.5 mM in plate), 9.33 mm; in assay [5] ([HMIM]Cl 6.25 mM in plate) it was 14 mm; in assay [5] ([HMIM]Cl 25 mM in plate), 100 mm; in assay [5] ([OMIM]Cl 0 M in plate) it was 8 mm; in assay [5] ([OMIM]Cl 0.25 mM in plate) it was 9 mm. The “Zone of inhibition (ZOI) diameter” value in assay [5] ([OMIM]Cl 0.625 mM in plate) was 21.67 mm; in assay [5] ([OMIM]Cl 2.5 mM in plate) it was 100 mm; in assay [6] ([HMIM]Cl 0 mM in plate), 0 mm; in assay [6] ([HMIM]Cl 2.5 mM in plate), 0 mm; in assay [6] ([HMIM]Cl 6.25 mM in plate) it was 12.67 mm; in assay [6] ([HMIM]Cl 25 mM in plate), 16 mm. For the same compound, the “Zone of inhibition (ZOI) diameter” value in assay [6] ([OMIM]Cl 0 M in plate) came to 0 mm; in assay [6] ([OMIM]Cl 0.25 mM in plate), 0 mm; in assay [6] ([OMIM]Cl 0.625 mM in plate) it was 16.33 mm; in assay [6] ([OMIM]Cl 2.5 mM in plate), 26.33 mm. The “inhibition of C. albicans growth around disk” value in assay [6] is given as “no inhibition”.

As for `CC(=O)N1CCN(c2ccc(OCC3COC(Cn4ccnc4)(c4ccc(Cl)cc4Cl)O3)cc2)CC1` (stereo not shown) [Ketoconazole], the MIC50 in assay [1] (setting [7]) was found to be 0.5 µg/mL; in assay [2] (setting [7]), 1 µg/mL; in assay [3] (setting [7]), 0.5 µg/mL; in assay [4] (setting [7]) it was 0.5 µg/mL. The “Zone of inhibition (ZOI) diameter” value in assay [5] ([HMIM]Cl 0 mM in plate) came to 25 mm; in assay [5] ([HMIM]Cl 2.5 mM in plate) it was 27.33 mm; in assay [5] ([HMIM]Cl 6.25 mM in plate) it was 63 mm; in assay [5] ([HMIM]Cl 25 mM in plate), 100 mm; in assay [5] ([OMIM]Cl 0 M in plate), 25 mm; in assay [5] ([OMIM]Cl 0.25 mM in plate), 29.67 mm. Further, the “Zone of inhibition (ZOI) diameter” value in assay [5] ([OMIM]Cl 0.625 mM in plate) is 57.33 mm; in assay [5] ([OMIM]Cl 2.5 mM in plate), 100 mm; in assay [6] ([HMIM]Cl 0 mM in plate) it was 13.67 mm; in assay [6] ([HMIM]Cl 2.5 mM in plate), 17 mm; in assay [6] ([HMIM]Cl 6.25 mM in plate), 29 mm; in assay [6] ([HMIM]Cl 25 mM in plate), 47.67 mm. In addition, the “Zone of inhibition (ZOI) diameter” value stood at 13.67 mm in assay [6] ([OMIM]Cl 0 M in plate), 19.33 mm in assay [6] ([OMIM]Cl 0.25 mM in plate), 28 mm in assay [6] ([OMIM]Cl 0.625 mM in plate) and 57.33 mm in assay [6] ([OMIM]Cl 2.5 mM in plate). Further, in assay [6], the “inhibition of C. albicans growth around disk” value was “minimal inhibition”.

Turning to `CCn1cc[n+](C)c1` [[EMIM]Cl, 1-ethyl-3-methylimidazolium chloride], the MIC50 was 50 mM in assay [1] (48 h), over 100 mM in assay [2], 50 mM in assay [3] (48 h) and 25 mM in assay [4] (48 h).
